Laboratory results from patent US20090311246A1, “Method of Enhancing Remyelination in Demyelinating Diseases of the Central Nervous System” (priority 2008, published 2009).

B1: Bovine MBP: bovine myelin basic protein (protein)
chain: AAQKRPSQRSKYLASASTMDHARHGFLPRHRDTGILDSLGRFFGSDRGAPKRGSGKDGHHAARTTHYGSLPQKAQGHRPQDENPVVHFFKNIVTPRTPPPSQGKGRGLSLSRFSWGAEGQKPGFGYGGRASDYKSAHKGLKGHDAQGTLSKIFKLGGRDSRSGSPMARR
B2: rMOG: recombinant MOG (protein, UniProt Q16653 30-247, looked up)
Myelin-oligodendrocyte …: GQFRVIGPRHPIRALVGDEVELPCRISPGKNATGMEVGWYRPPFSRVVHLYRNGKDQDGDQAPEYRGRTELLKDAIGEGKVTLRIRNVRFSDEGGFTCFFRDHSYQEEAAMELKVEDPFYWVSPGVLVLLAVLPVLLLQITVGLIFLCLQYRLRGKLRAEIENLHRTFDPHFLRVPCWKITLFVIVPVLGPLVALIICYNWLHRRLAGQFLEELRNPF
B3: MOG Protein: myelin oligodendrocyte glycoprotein (protein, UniProt Q16653 30-247, looked up)
Myelin-oligodendrocyte …: B2 Myelin-oligodendrocyte …
B4: MBP Protein: myelin basic protein (protein, UniProt P02686 1-304, looked up)
Myelin basic protein: MGNHAGKRELNAEKASTNSETNRGESEKKRNLGELSRTTSEDNEVFGEADANQNNGTSSQDTAVTDSKRTADPKNAWQDAHPADPGSRPHLIRLFSRDAPGREDNTFKDRPSESDELQTIQEDSAATSESLDVMASQKRPSQRHGSKYLATASTMDHARHGFLPRHRDTGILDSIGRFFGGDRGAPKRGSGKDSHHPARTAHYGSLPQKSHGRTQDENPVVHFFKNIVTPRTPPPSQGKGRGLSLSRFSWGAEGQRPGFGYGGRASDYKSAHKGFKGVDAQGTLSKIFKLGGRDSRSGSPMARR

Legend:
Normal Rabbit Serum = test: Indirect ELISA of normal rabbit serum/IgG against viral and myelin antigens; type: binding; conditions: 10^−2 diluted
[1] = system: sera from SFV-infected B6 mice; type: binding; conditions: for Dh / D0 (Ratio): OD of highest day (day 15 or 21) over day 0, SFV-infected sera; for Dh−D0 (difference): OD of highest day minus day 0, SFV-infected sera; for Net change in the levels of antibody (ΔOD), D7-9 / Net change in the levels of antibody (ΔOD), D14-16 / Net change in the levels of antibody (ΔOD), D21-23 / Net change in the levels of antibody (ΔOD), D31-35: SFV-infected mice sera, day 0 OD subtracted; for Net change in the levels of antibody (ΔOD), D7-9: days 7-9 pi; for Net change in the levels of antibody (ΔOD), D14-16: days 14-16 pi; for Net change in the levels of antibody (ΔOD), D21-23: days 21-23 pi; for Net change in the levels of antibody (ΔOD), D31-35: days 31-35 pi; for Reactivity of sera from SFV-infected B6 mice with the antigen in ELISA: vs day 0
Protocol: To measure the antibody response of both WT and γδ KO mice against SFV and two of the peptides of the SFV envelope protein, E2, an indirect ELISA was performed. Sera were pooled from 4-6 SFV-infected WT, and 3 KO, mice on days 0, 7, 14, 21 and 35 pi. Briefly, Immunolon 2HB 96 well microtiter plates (VWR, Bridge Port, N.J.) were coated with 1 μg/well of each antigen in 100 μl/well carbonate buffer overnight at room temperature. After washing, the plates were blocked and serum samples were added. […] After washing, biotinylated goat anti-mouse Igs (BD Pharmingen, Torreyana, Calif.), Strepavidin conjugated to Horse Radish Peroxidase (Vector Laboratories, Burlingame, Calif.), and OPD substrate (Sigma, St. Louis, Mo.) were used, as previously described (4, 9). […] Values were considered to be positive when they were >0.3 OD units and exceeded the mean value plus three standard deviations for antibody response on day 0 pi of mice of the same strain. […]
In some instances day 0 OD values were high, thus making the differences appear small. Therefore, to account for such discrepancy, we also determined the ratio of the highest day (day 15 or 21) over day 0.

[2] = system: Rabbit Anti-SFV polyclonal antibody; test: Indirect ELISA of rabbit anti-SFV polyclonal IgG against viral and myelin antigens; type: binding; conditions: for Rabbit Anti-SFV Ab, OD at 490 nm: 10^−2 diluted, indirect ELISA; for Immunoreactivity of IgG fraction of serum from rabbits immunized with UV-inactivated SFV: ELISA; for OD Difference: Rabbit Anti-SFV Ab minus Normal Rabbit Serum
Protocol: The total IgG fraction was commercially prepared (Strategic Biosolutions, Ramona, Calif.) from pooled sera of 3 rabbits immunized once with UV-inactivated SFV (A774 strain) emulsified in CFA and boosted 3 times with antigen in IFA at weeks 3, 5, and 7. The IgG fraction of the pooled antisera was purified by ion-exchange chromatography and contained 8.7 mg IgG/ml of PBS. Antibody activities to SFV and peptides of SFV, to E2, and to recombinant ® MOG and its peptides were confirmed by ELISA. Normal rabbit IgG, isolated from pooled normal rabbit sera by ion-exchange chromatography (Signa Chemical Co., St. Louis, Mo.), was dissolved in saline. Protein concentration was determined by the Bradford assay (Sigma), using normal rabbit IgG as the standard. The IgG solutions were diluted to 3 mg protein/ml in saline and sterilized by passage through a 0.22 μm filter (Millipore Corp., Bedford, Mass.).
To measure the antibody response of both WT and γδ KO mice against SFV and two of the peptides of the SFV envelope protein, E2, an indirect ELISA was performed. Sera were pooled from 4-6 SFV-infected WT, and 3 KO, mice on days 0, 7, 14, 21 and 35 pi. Briefly, Immunolon 2HB 96 well microtiter plates (VWR, Bridge Port, N.J.) were coated with 1 μg/well of each antigen in 100 μl/well carbonate buffer overnight at room temperature. After washing, the plates were blocked and serum samples were added. […] After washing, biotinylated goat anti-mouse Igs (BD Pharmingen, Torreyana, Calif.), Strepavidin conjugated to Horse Radish Peroxidase (Vector Laboratories, Burlingame, Calif.), and OPD substrate (Sigma, St. Louis, Mo.) were used, as previously described (4, 9). […] Values were considered to be positive when they were >0.3 OD units and exceeded the mean value plus three standard deviations for antibody response on day 0 pi of mice of the same strain.
The polyclonal rabbit anti SFV antibody was commercially prepared (Strategic Biosolutions, Ramona, Calif.) from pooled sera of 3 rabbits, immunized once with UV-inactivated SFV (A774 strain) emulsified in CFA and boosted 3 times with antigen in IFA at weeks 3, 5, and 7.

B6 mice = conditions: ref. (4); cited from earlier work
[3] = system: sera from SFV-infected WT and γδ KO mice; test: ELISA of sera from SFV-infected WT and γδ KO mice against SFV, E2 peptides, PPD and rMOG; type: binding

Molecule | Normal Rabbit Serum, OD at 490 nm (Normal Rabbit Serum) [OD] | Dh / D0 (Ratio) [1] | Dh−D0 (difference) [1] | Net change in the levels of antibody (ΔOD), D7-9 [1] | Net change in the levels of antibody (ΔOD), D14-16 [1] | Net change in the levels of antibody (ΔOD), D21-23 [1] | Net change in the levels of antibody (ΔOD), D31-35 [1] | Reactivity of sera from SFV-infected B6 mice with the antigen in ELISA [1] | Rabbit Anti-SFV Ab, OD at 490 nm [2] [OD] | OD Difference [2] [OD] | also measured
GKDSHTRTTHYGS [MBP 56-68, mouse MBP 56-68 peptide, mimicked by E2 137-151] | 0.195 | 5.37 | 0.824 | 1.10 ± 0.04 ΔOD | 0.83 ± 0.10 ΔOD | 1.07 ± 0.12 ΔOD | 0.55 ± 0.18 ΔOD | reacted significantly | 0.852 | 0.691 | Immunoreactivity of IgG fraction of serum from rabbits immunized with UV-inactivated SFV [2]: Cross-reactivity
THYGSLPQKSQR (GSGKDSHTRTTH) [MBP 64-75, myelin basic protein peptide 64-75] | – | 2.93 | 0.375 | – | – | – | – | – | – | – | –
NH2-MEVGWYRSPFSRVVHLYRNGK-OH (H-MEVGWYRSPFSRVVHLYRNGK-OH) [MOG 35-55, myelin oligodendrocyte glycoprotein (MOG) peptide 35-55] | 0.007 | 5.11 | 0.362 | 055 ± 0.08 ΔOD | 0.78 ± 0.08 ΔOD | 0.82 ± 0.05 ΔOD | 0.78 ± 0.07 ΔOD | – | 0.184 | 0.177 | –
DEAELPSRISPGKNA [MOG 18-32] | 0.260 | 3.2 | 0.919 | 0.34 ± 0.31 ΔOD | 0.75 ± 0.23 ΔOD | 0.91 ± 0.15 ΔOD | 0.91 ± 0.36 ΔOD | reacted significantly | 0.907 | 0.647 | Immunoreactivity of IgG fraction of serum from rabbits immunized with UV-inactivated SFV [2]: Cross-reactivity
H-IQDTRNAVRACRIQYHHD-OH [E2 115-129, reference compound] | – | 5.28 | 0.458 | 0.82 ± 0.40 ΔOD | 0.91 ± 0.14 ΔOD | 0.95 ± 0.22 ΔOD | 0.85 ± 0.07 ΔOD | reacted | – | – | Histopathology after inoculation with the peptide (literature) (B6 mice): induced vaccuolation in myelin; Net change in the level of antibody, D0 WT ([3]; WT mice, day 0): 0 nano gr; Net change in the level of antibody, D7 WT ([3]; WT mice, day 7 pi, ± SD): 69 ± 29 nano gr; Net change in the level of antibody, D14 WT ([3]; WT mice, day 14 pi, ± SD): 83 ± 16 nano gr; Net change in the level of antibody, D21 WT ([3]; WT mice, day 21 pi, ± SD): 90 ± 20 nano gr; Net change in the level of antibody, D35 WT ([3]; WT mice, day 35 pi, ± SD): 73 ± 14 nano gr; Net change in the level of antibody, D0 KO ([3]; γδ KO mice, day 0): 0 nano gr; Net change in the level of antibody, D7 KO ([3]; γδ KO mice, day 7 pi, ± SD): 65 ± 35 nano gr; Net change in the level of antibody, D14 KO ([3]; γδ KO mice, day 14 pi, ± SD): 34 ± 24 nano gr; Net change in the level of antibody, D21 KO ([3]; γδ KO mice, day 21 pi, ± SD): 55 ± 20 nano gr; Net change in the level of antibody, D35 KO ([3]; γδ KO mice, day 35 pi, ± SD): 29 ± 22 nano gr; Reactivity of sera from SFV-infected γδ KO mice ([3]; γδ KO, sera 1:80): lower, but not significantly different than WT
EGVNDNEEGFFSAR [FB, Fibrinopeptide B, 1-14, negative control peptide] | – | 1.26 | 0.068 | 0.06 ± 0.07 ΔOD | 0.05 ± 0.07 ΔOD | 0.05 ± 0.08 ΔOD | 0.08 ± 0.09 ΔOD | – | – | – | –
B1 | 0.283 | – | – | – | – | – | – | – | 0.622 | 0.339 | –
B2 | 0.213 | – | – | – | – | – | – | – | 0.359 | 0.146 | Reactivity of sera from both SFV-infected WT and KO groups ([3]; WT and KO, days 7 to 35 pi): twice as the background level
B3 | – | 4.1 | 0.89 | 0.47 ± 0.21 ΔOD | 0.84 ± 0.18 ΔOD | 0.91 ± 0.11 ΔOD | 0.96 ± 0.07 ΔOD | reacted significantly | – | – | –
B4 | – | 2.42 | 0.967 | 0.53 ± 0.11 ΔOD | 1.04 ± 0.24 ΔOD | 1.12 ± 0.31 ΔOD | 1.00 ± 0.32 ΔOD | reacted significantly | – | – | –
